The assay deals with T1, CCR9 (Homo sapiens, UniProt P51686).
T1 construct: host or cells: HEK293T, transient
T1 sequence (P51686 1-369): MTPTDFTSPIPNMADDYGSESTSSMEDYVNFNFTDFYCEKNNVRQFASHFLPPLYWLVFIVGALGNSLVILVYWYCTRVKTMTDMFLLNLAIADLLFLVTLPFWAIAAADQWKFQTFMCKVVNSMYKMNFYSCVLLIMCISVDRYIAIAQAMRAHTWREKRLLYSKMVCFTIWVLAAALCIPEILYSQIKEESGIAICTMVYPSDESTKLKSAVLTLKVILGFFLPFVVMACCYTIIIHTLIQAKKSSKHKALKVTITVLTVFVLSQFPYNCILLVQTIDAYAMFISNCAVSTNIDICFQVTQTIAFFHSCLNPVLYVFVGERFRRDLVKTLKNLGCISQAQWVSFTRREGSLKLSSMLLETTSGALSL
Briefly: NanoBRET-based assay for binding to the IABS of CCR9, as previously reported. The conditions noted are these: up to a concentration of 20 μM. From the text:
With 6 (Figure 1), a first lead structure for intracellular CCR1 inhibition that features an approximately 20-fold CCR1 over CCR2 selectivity was previously discovered by Ortiz Zacarías et al.([33]) In order to discover new chemotypes for selective CCR1 over CCR2 inhibition, we aimed to apply our novel NanoBRET competition binding assay for CCR1 in combination with our recently published CCR2 competition binding assay based on 7.[47] In our first attempt, we screened a small in-house library enriched with intracellular GPCR ligands and structural analogues thereof. […] Additionally, we tested 23 for binding to the IABS of CCR9 and CXCR2 using our recently reported NanoBRET-based assay platform (Figure 6C).[44],[45] In the course of these studies, we detected no binding of 23 to CCR9 and CXCR2 up to a concentration of 20 μM. Since cell lineage-dependent effects have been observed for CCR1 antagonists,[59] we studied the CCR1 over CCR2 selectivity of 23 by using a previously reported radioligand binding assay with membrane preparations from osteosarcoma (U2OS) cells stably expressing human CCR1 or CCR2.[33] […] In agreement with these previous reports,[33] we observed a reduction in CCR1 over CCR2 selectivity when moving from membrane-based binding assays to cell-based functional assays. […]

From publication PMC11249626, “Fluorophore-Labeled Pyrrolones Targeting the Intracellular Allosteric Binding Site of the Chemokine Receptor CCR1” (ACS Pharmacology & Translational Science, 2024) come the findings set out here.

Take `O=C(C1=C(O)C(=O)N(CCc2ccc(O)cc2)C1c1ccc(F)cc1)c1ccccc1` (racemic) [compound 23]: the “Binding to the IABS of CCR9” value was “no binding”.
